Measurements from ChEMBL document CHEMBL2429805, “Studies toward the development of new silicon-containing building blocks for the direct (18)F-labeling of peptides” (J Med Chem, 2013).

Legend:
Mus musculus [1] = test: Biodistribution in prostate of NMRI nude mouse xenografted with human PC3 cells at 4.8 to 10.5 MBq after 117 mins by gamma-counting analysis in presence of bombesin; assay type: ADME, organism-based, Prostate gland, PC-3; conditions: in vivo, 1.95 h
Mus musculus [2] = test: Biodistribution in urinary bladder of NMRI nude mouse xenografted with human PC3 cells at 8.3 to 15.3 MBq after 60 to 105 mins by PET imaging analysis; assay type: ADME, organism-based, PC-3; conditions: in vivo
Liver [3] = test: Biodistribution in liver of NMRI nude mouse xenografted with human PC3 cells at 8.3 to 15.3 MBq after 117 mins by gamma-counting analysis; assay type: ADME, organism-based, PC-3; conditions: in vivo, 1.95 h
Mus musculus [4] = test: Biodistribution in tumor of NMRI nude mouse xenografted with human PC3 cells at 8.3 to 15.3 MBq after 117 mins by gamma-counting analysis; assay type: ADME, organism-based, Neoplasm, PC-3; conditions: in vivo, 1.95 h
Blood [5] = test: Biodistribution in blood of NMRI nude mouse xenografted with human PC3 cells at 4.8 to 10.5 MBq after 117 mins by gamma-counting analysis in presence of bombesin; assay type: ADME, organism-based, PC-3; conditions: in vivo, 1.95 h
Spleen [6] = test: Biodistribution in spleen of NMRI nude mouse xenografted with human PC3 cells at 8.3 to 15.3 MBq after 117 mins by gamma-counting analysis; assay type: ADME, organism-based, PC-3; conditions: in vivo, 1.95 h
Mus musculus [7] = test: Biodistribution in prostate of NMRI nude mouse xenografted with human PC3 cells at 8.3 to 15.3 MBq after 117 mins by gamma-counting analysis; assay type: ADME, organism-based, Prostate gland, PC-3; conditions: in vivo, 1.95 h
Kidney [8] = test: Biodistribution in kidney of NMRI nude mouse xenografted with human PC3 cells at 8.3 to 15.3 MBq after 117 mins by gamma-counting analysis; assay type: ADME, organism-based, PC-3; conditions: in vivo, 1.95 h
Mus musculus [9] = test: Biodistribution in abdominal region of NMRI nude mouse xenografted with human PC3 cells at 8.3 to 15.3 MBq after 60 to 105 mins by PET imaging analysis; assay type: ADME, organism-based, Abdomen, PC-3; conditions: in vivo
Intestine [10] = test: Biodistribution in intestine of NMRI nude mouse xenografted with human PC3 cells at 4.8 to 10.5 MBq after 117 mins by gamma-counting analysis in presence of bombesin; assay type: ADME, organism-based, PC-3; conditions: in vivo, 1.95 h
Blood [11] = test: Biodistribution in blood of NMRI nude mouse xenografted with human PC3 cells at 8.3 to 15.3 MBq after 117 mins by gamma-counting analysis; assay type: ADME, organism-based, PC-3; conditions: in vivo, 1.95 h
Lung [12] = test: Biodistribution in lung of NMRI nude mouse xenografted with human PC3 cells at 4.8 to 10.5 MBq after 117 mins by gamma-counting analysis in presence of bombesin; assay type: ADME, organism-based, PC-3; conditions: in vivo, 1.95 h
Lung [13] = test: Biodistribution in lung of NMRI nude mouse xenografted with human PC3 cells at 8.3 to 15.3 MBq after 117 mins by gamma-counting analysis; assay type: ADME, organism-based, PC-3; conditions: in vivo, 1.95 h
[14] = Ratio of biodistribution in tumor to blood of NMRI nude mouse xenografted with human PC3 cells at 4.8 to 10.5 MBq after 117 mins by gamma-counting analysis in presence of bombesin; assay type: ADME, organism-based, PC-3; conditions: tumour, 1.95 h
Mus musculus [15] = test: Biodistribution in tumor of NMRI nude mouse xenografted with human PC3 cells at 4.8 to 10.5 MBq after 117 mins by gamma-counting analysis in presence of bombesin; assay type: ADME, organism-based, Neoplasm, PC-3; conditions: in vivo, 1.95 h
Pancreas [16] = test: Biodistribution in pancreas of NMRI nude mouse xenografted with human PC3 cells at 8.3 to 15.3 MBq after 117 mins by gamma-counting analysis; assay type: ADME, organism-based, PC-3; conditions: in vivo, 1.95 h
Liver [17] = test: Biodistribution in liver of NMRI nude mouse xenografted with human PC3 cells at 4.8 to 10.5 MBq after 117 mins by gamma-counting analysis in presence of bombesin; assay type: ADME, organism-based, PC-3; conditions: in vivo, 1.95 h
[18] = Ratio of biodistribution in tumor to blood of NMRI nude mouse xenografted with human PC3 cells at 8.3 to 15.3 MBq after 117 mins by gamma-counting analysis; assay type: ADME, organism-based, PC-3; conditions: tumour, 1.95 h
Intestine [19] = test: Biodistribution in intestine of NMRI nude mouse xenografted with human PC3 cells at 8.3 to 15.3 MBq after 117 mins by gamma-counting analysis; assay type: ADME, organism-based, PC-3; conditions: in vivo, 1.95 h
Mus musculus [20] = test: Biodistribution in tumor of NMRI nude mouse xenografted with human PC3 cells at 8.3 to 15.3 MBq after 60 to 105 mins by PET imaging analysis; assay type: ADME, organism-based, Neoplasm, PC-3; conditions: in vivo
Mus musculus [21] = test: Biodistribution in tumor of NMRI nude mouse xenografted with human PC3 cells at 4.8 to 10.5 MBq after 60 to 105 mins by PET imaging analysis in presence of bombesin; assay type: ADME, organism-based, Neoplasm, PC-3; conditions: in vivo
Mus musculus [22] = test: Biodistribution in gallbladder of NMRI nude mouse xenografted with human PC3 cells at 8.3 to 15.3 MBq after 117 mins by gamma-counting analysis; assay type: ADME, organism-based, Gall bladder, PC-3; conditions: in vivo, 1.95 h
Mus musculus [23] = test: Biodistribution in gallbladder of NMRI nude mouse xenografted with human PC3 cells at 4.8 to 10.5 MBq after 117 mins by gamma-counting analysis in presence of bombesin; assay type: ADME, organism-based, Gall bladder, PC-3; conditions: in vivo, 1.95 h
Pancreas [24] = test: Biodistribution in pancreas of NMRI nude mouse xenografted with human PC3 cells at 4.8 to 10.5 MBq after 117 mins by gamma-counting analysis in presence of bombesin; assay type: ADME, organism-based, PC-3; conditions: in vivo, 1.95 h
[25] = Stability of the compound in PBS buffer up to 2 hrs; assay type: physicochemical
Bone = test: Biodistribution in bone of NMRI nude mouse xenografted with human PC3 cells at 8.3 to 15.3 MBq after 60 to 105 mins by PET imaging analysis; assay type: ADME, organism-based, Bone element, PC-3; conditions: in vivo
[26] = Lipophilicity, log D of the compound in 1-octanol/PBS buffer at pH 7.4 after 15 mins by shake flask method; assay type: physicochemical
Spleen [27] = test: Biodistribution in spleen of NMRI nude mouse xenografted with human PC3 cells at 4.8 to 10.5 MBq after 117 mins by gamma-counting analysis in presence of bombesin; assay type: ADME, organism-based, PC-3; conditions: in vivo, 1.95 h
Kidney [28] = test: Biodistribution in kidney of NMRI nude mouse xenografted with human PC3 cells at 4.8 to 10.5 MBq after 117 mins by gamma-counting analysis in presence of bombesin; assay type: ADME, organism-based, PC-3; conditions: in vivo, 1.95 h

**Q.** With CC(C)C[C@H](NC(=O)C[C@H](O)[C@H](CC(C)C)NC(=O)[C@H](Cc1cnc[nH]1)NC(=O)CN(C)C(=O)[C@@H](NC(=O)[C@H](C)NC(=O)[C@H](Cc1c[nH]c2ccccc12)NC(=O)[C@H](CCC(N)=O)NC(=O)CCCCNC(=O)[C@H](CS(=O)(=O)O)NC(=O)[C@H](CS(=O)(=O)O)NC(=O)Cc1ccc([Si]([18F])(C(C)(C)C)C(C)(C)C)cc1)C(C)C)C(N)=O as the molecule, how does the Drug uptake (Mus musculus [1]) read?
**A.** The Drug uptake was 0.7 % ID/g.

**Q.** What about the Drug uptake (Mus musculus [2]) of the same molecule?
**A.** Its Drug uptake is “Active”.

**Q.** What about the Drug uptake (Liver [3]) of the same molecule?
**A.** Its Drug uptake is 4.4 % ID/g.

**Q.** What about the Drug uptake (Mus musculus [4]) of the same molecule?
**A.** The Drug uptake was 1.8 % ID/g.

**Q.** And the Drug uptake (Blood [5])?
**A.** Its Drug uptake is 1.17 % ID/g.

**Q.** And the Drug uptake (Spleen [6])?
**A.** Its Drug uptake is 0.57 % ID/g.

**Q.** And the Drug uptake (Mus musculus [7])?
**A.** The Drug uptake was 0.37 % ID/g.

**Q.** And the Drug uptake (Kidney [8])?
**A.** The Drug uptake was 1.7 % ID/g.

**Q.** And the Drug uptake (Mus musculus [9])?
**A.** Its Drug uptake is “Active”.

**Q.** What about the Drug uptake (Intestine [10]) of the same molecule?
**A.** The Drug uptake was 16 % ID/g.

**Q.** What about the Drug uptake (Blood [11]) of the same molecule?
**A.** Its Drug uptake is 0.91 % ID/g.

**Q.** And the Drug uptake (Lung [12])?
**A.** The Drug uptake was 1.4 % ID/g.

**Q.** What about the Drug uptake (Lung [13]) of the same molecule?
**A.** The Drug uptake was 0.65 % ID/g.

**Q.** What about the Ratio [14] of the same molecule?
**A.** Its Ratio is 1.1.

**Q.** What about the Drug uptake (Mus musculus [15]) of the same molecule?
**A.** The Drug uptake was 1.24 % ID/g.

**Q.** What about the Drug uptake (Pancreas [16]) of the same molecule?
**A.** Its Drug uptake is 10 % ID/g.

**Q.** What about the Drug uptake (Liver [17]) of the same molecule?
**A.** Its Drug uptake is 5.6 % ID/g.

**Q.** What about the Ratio [18] of the same molecule?
**A.** Its Ratio is 2.

**Q.** And the Drug uptake (Intestine [19])?
**A.** The Drug uptake was 21 % ID/g.

**Q.** And the Drug uptake (Mus musculus [20])?
**A.** The Drug uptake was “Active”.

**Q.** What about the Drug uptake (Mus musculus [21]) of the same molecule?
**A.** The Drug uptake was “Active”.

**Q.** And the Drug uptake (Mus musculus [22])?
**A.** The Drug uptake was 194 % ID/g.

**Q.** And the Drug uptake (Mus musculus [23])?
**A.** Its Drug uptake is 236 % ID/g.

**Q.** What about the Drug uptake (Pancreas [24]) of the same molecule?
**A.** Its Drug uptake is 3.4 % ID/g.

**Q.** And the Stability [25]?
**A.** The Stability was “Stable”.

**Q.** What about the Drug uptake (Bone) of the same molecule?
**A.** Its Drug uptake is “Not Active”.

**Q.** And the logD at 0.25 h [26]?
**A.** Its logD at 0.25 h is 0.3.

**Q.** And the Drug uptake (Spleen [27])?
**A.** Its Drug uptake is 0.57 % ID/g.

**Q.** What about the Drug uptake (Kidney [28]) of the same molecule?
**A.** The Drug uptake was 2.1 % ID/g.
